For assay [1], the system named is PC3 (prostate) cancer cell line. The assay is described as follows: In vitro cytotoxic activity MTT assay, PC3. The class given is cell-based. The conditions noted are these: Homo sapiens, PC3 (prostate) cells, exposed for 96 hours, read-out: IC50, concentration of compound eliciting a 50% inhibition of cell proliferation. The protocol: (§1) Compounds 1-16 were screened for their in vitro cytotoxic activity utilizing a 3-(4,5-dimethyl-thiazol-2-yl)-2,5-diphenyltetrazolium bromide (MTT) assay against selected cancer human cell lines consisting of PC3 (prostate), HCT116 (colon), A375 (melanoma), H1299 (lung), MIAPaCa-2 (pancreas), HL60 (leukemia), MCF7 (breast), MDA-MB-231 (breast) (T. Mosmann, J. Immunol. Meth., 1983, 65, 55-63). The cells were cultured at 37° C. in RMPI1640 medium supplemented with 10% fetal bovine serum, 50 IU/mL penicillin, and 50 μg/mL streptomycin in a 5% CO2 incubator. All cells were sub-cultured 3 times/week by trypsinisation. Viable cells were seeded and allowed to adhere for 12 h before a test drug was added in 96-well plates at an initial density of 1.0×10^5 cells/mL. Tumor cell lines were separately exposed to various concentrations of the tested compounds followed by incubation at a temperature of 37° C. during 96 hours inside a medium of fresh RMPI 1640. Cells were subsequently incubated at 37° C. using MTT at 0.5 mg/mL during 4 hours. After removal of supernatant, formazan crystals were dissolved in isopropanol and the optical density was measured at 570 nm. CX-4945 was used as a positive control.

Assay [2] has as its system HCT116 (colon) cancer cell line. Kind of assay: In vitro cytotoxic activity MTT assay, HCT116. Type of assay: cell-based. The conditions noted are these: Homo sapiens, HCT-116; HCT116 (colon) cells, exposed for 96 hours; read-out: IC50, concentration of compound eliciting a 50% inhibition of cell proliferation. The method, then: as §1
For assay [3], the system named is A375 (melanoma) cancer cell line. The assay is described as follows: In vitro cytotoxic activity MTT assay, A375. Type of assay: cell-based. The following applies: Homo sapiens, A-375; A375 (melanoma) cells, exposed for 96 hours; read-out: IC50, concentration of compound eliciting a 50% inhibition of cell proliferation. The method, then: as §1
The subject of assay [4] is H1299 (lung) cancer cell line. Kind of assay: In vitro cytotoxic activity MTT assay, H1299. The class given is cell-based. The following applies: Homo sapiens, NCI-H1299; H1299 (lung) cells, exposed for 96 hours; read-out: IC50, concentration of compound eliciting a 50% inhibition of cell proliferation. The method, then: as §1
In assay [5] the test system is MIAPaCa-2 (pancreas) cancer cell line. The assay is described as follows: In vitro cytotoxic activity MTT assay, MIAPaCa-2. Type of assay: cell-based. The following applies: Homo sapiens, MIA PaCa-2; MIAPaCa-2 (pancreas) cells, exposed for 96 hours; read-out: IC50, concentration of compound eliciting a 50% inhibition of cell proliferation. The protocol: as §1
The subject of assay [6] is HL60 (leukemia) cancer cell line. The assay is described as follows: In vitro cytotoxic activity MTT assay, HL60. Type of assay: cell-based. The conditions noted are these: Homo sapiens, HL-60; HL60 (leukemia) cells, exposed for 96 hours; read-out: IC50, concentration of compound eliciting a 50% inhibition of cell proliferation. The method, then:
as §1

Assay [7] relates to MCF7 (breast) cancer cell line. Kind of assay: In vitro cytotoxic activity MTT assay, MCF7. The class given is cell-based. The following applies: Homo sapiens; MCF7 (breast) cells, exposed for 96 hours; read-out: IC50, concentration of compound eliciting a 50% inhibition of cell proliferation. The protocol:
as §1

In assay [8] the test system is MDA-MB-231 (breast) cancer cell line. The assay is described as follows: In vitro cytotoxic activity MTT assay, MDA-MB-231. Type of assay: cell-based. The following applies: Homo sapiens; MDA-MB-231 (breast) cells, exposed for 96 hours; read-out: IC50, concentration of compound eliciting a 50% inhibition of cell proliferation. The protocol: as §1
Assay [9] deals with T1, recombinant human CK2 (holoenzyme) (Homo sapiens, UniProt P68400).
T1 construct: purchased Millipore
T1 sequence (P68400 whole entry): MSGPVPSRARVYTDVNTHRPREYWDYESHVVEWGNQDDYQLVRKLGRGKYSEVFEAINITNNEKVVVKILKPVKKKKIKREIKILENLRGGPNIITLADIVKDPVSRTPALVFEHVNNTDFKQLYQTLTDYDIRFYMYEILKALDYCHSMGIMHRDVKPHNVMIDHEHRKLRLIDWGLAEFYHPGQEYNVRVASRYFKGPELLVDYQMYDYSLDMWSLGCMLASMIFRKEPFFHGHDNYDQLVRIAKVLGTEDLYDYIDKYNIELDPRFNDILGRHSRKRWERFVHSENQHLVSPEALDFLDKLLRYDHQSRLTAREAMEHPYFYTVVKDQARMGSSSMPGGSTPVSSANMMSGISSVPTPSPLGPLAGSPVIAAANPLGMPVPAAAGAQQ
T1 sequence (P67870 whole entry partner): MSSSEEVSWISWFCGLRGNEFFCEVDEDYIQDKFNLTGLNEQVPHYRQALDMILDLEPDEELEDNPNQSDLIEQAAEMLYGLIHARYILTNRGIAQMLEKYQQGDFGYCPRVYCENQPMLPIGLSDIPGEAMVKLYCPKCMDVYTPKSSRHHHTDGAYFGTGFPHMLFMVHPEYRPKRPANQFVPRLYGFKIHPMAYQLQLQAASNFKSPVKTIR
Kind of assay: CK2 Kinase Assay (radiometric, [γ-33P] ATP). Type of assay: biochemical. The following applies: final ATP concentration 15 μM, 10 min at 30° C., eight concentrations; read-out: protein kinase CK2 inhibition IC50. The method, then: CK2 Kinase Assay was conducted using the protocol as described in Pierre F. et al; J. Med. Chem. 2011, 54, 635-654. The tested compounds in aqueous solution were added at a volume of 10 μL to a reaction mixture comprising 10 μL of assay dilution buffer (ADB; 20 mM MOPS, pH 7.2, 25 mM P-glycerol phosphate, 5 mM EGTA, 1 mM sodium orthovanadate, and 1 mM dithiothreitol), 10 μL of substrate peptide (RRRDDDSDDD, dissolved in ADB at a concentration of 1 mM), 10 μL of recombinant human CK2 (RROP-holoenzyme, 25 ng dissolved in ADB; Millipore). Reactions were initiated by the addition of 10 μL of ATP solution (90% 75 mMMgCl2, 75 μM ATP (final ATP concentration:15 μM) dissolved in ADB; 10% [γ-33P] ATP (stock 1mCi/100 μL; 3000 Ci/mmol (Perkin-Elmer) and maintained for 10 min at 30° C. The reactions were quenched with 100 μL of 0.75% phosphoric acid and then transferred to and filtered through a phosphor cellulose filter plate (Millipore). After washing each well five times with 0.75% phosphoric acid, the plate was dried under vacuum for 5 min and, following the addition of 15 μL of scintillation fluid to each well, the residual radioactivity was measured using a Wallac luminescence counter. The IC50 values were derived from eight concentrations of test inhibitors.

The text below walks through data of patent US11999736B1, “Pyrazino[2′,1′:2,3]imidazo[4,5-b][1,7]naphthyridines compounds as CK2 inhibitors” (KING FAISAL UNIVERSITY, priority 2023, dated 2024).

SMILES strings stand for the structures.

`Clc1cccc(Nc2c3ccncc3nc3c2nc2cnccn23)c1` [Compound 1, N-(3-chlorophenyl)pyrazino[2′,1′:2,3]imidazo[4,5-b][1,7]naphthyridin-11-amine]: the IC50 in assay [1] is 1900 nM; in assay [2] it was 1400 nM; in assay [3], 3200 nM; in assay [4], 2900 nM; in assay [5] it was 1100 nM; in assay [6] it was 2800 nM. Further, the IC50 stood at 6300 nM in assay [7], 5000 nM in [8] and 92 nM in [9].
